Where a name gives a salt, the structure may show the parent alone.
These compounds were tested against human activated kallikrein enzyme (Homo sapiens, UniProt P03952) (assay: Inhibition of human activated plasma kallikrein, fluorogenic PFR-AMC substrate, 500 pM enzyme format). Conditions: 500 pM activated kallikrein; 300 μM PFR-AMC; 30 min preincubation; 10 min room temperature; pH 7.5; read-out: Primary Dose Response Assay: Average EC50.
Assay type: biochemical
In short: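 500 pM activated kallikrein preincubated 30 min at room temperature with inhibitors in pH 7.5 Tris/EDTA/NaCl buffer with PEG-400 and Triton X-100. Reaction started with 300 μM PFR-AMC, run 10 min at room temperature; AMC fluorescence read at ex 380/em 460 nm.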

human activated kallikrein enzyme, sequence (P03952 391-638 limits assumed): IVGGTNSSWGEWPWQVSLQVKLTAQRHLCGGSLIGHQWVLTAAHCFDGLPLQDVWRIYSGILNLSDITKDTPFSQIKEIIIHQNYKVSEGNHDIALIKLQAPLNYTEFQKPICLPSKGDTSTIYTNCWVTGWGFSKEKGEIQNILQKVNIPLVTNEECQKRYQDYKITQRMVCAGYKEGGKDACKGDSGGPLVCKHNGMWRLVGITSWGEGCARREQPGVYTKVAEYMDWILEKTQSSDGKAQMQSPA
human activated kallikrein enzyme, sequence (P03952 20-390 partner limits assumed): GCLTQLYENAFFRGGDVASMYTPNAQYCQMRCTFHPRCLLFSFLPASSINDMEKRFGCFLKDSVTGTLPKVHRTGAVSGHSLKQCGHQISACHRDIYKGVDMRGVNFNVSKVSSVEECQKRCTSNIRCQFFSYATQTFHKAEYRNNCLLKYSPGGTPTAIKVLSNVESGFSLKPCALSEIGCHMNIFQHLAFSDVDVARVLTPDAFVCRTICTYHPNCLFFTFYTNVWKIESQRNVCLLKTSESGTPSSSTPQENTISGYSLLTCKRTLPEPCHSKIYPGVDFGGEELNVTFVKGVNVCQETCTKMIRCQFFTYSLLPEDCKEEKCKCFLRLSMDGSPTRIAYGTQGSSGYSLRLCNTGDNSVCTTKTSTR

Row | SMILES | EC50
1 | Cc1ccc2nc(Cn3cc(C(=O)NCc4c(C)cc5c(N)nccc5c4C)cn3)cn2c1 [Example 10, N-((1-amino-5,7-dimethylisoquinolin-6-yl)methyl)-1-((6-methylimidazo[1,2-a]pyridin-2-yl)methyl)-1H-pyrazole-4-carboxamide] | < 1 nM
2 | Cc1cc2c(N)nccc2c(C)c1CNC(=O)c1cnn(Cc2ccc(Cc3nncn3C)cc2)c1 [Example 117, N-((1-amino-5,7-dimethylisoquinolin-6-yl)methyl)-1-(4-((4-methyl-4H-1,2,4-triazol-3-yl)methyl)benzyl)-1H-pyrazole-4-carboxamide] | 1 to 10 nM
3 | Cc1cc2c(N)nccc2c(C)c1CNc1cc(NCc2ccccc2)ncn1 [Example 341, N^4-((1-amino-5,7-dimethylisoquinolin-6-yl)methyl)-N^6-benzylpyrimidine-4,6-diamine] | 100 to 1000 nM
4 | Cc1cc2c(N)nccc2c(C)c1CNc1cc(OCc2ccc(Cn3cccn3)cn2)cnn1 [Example 446, 6-(((5-((5-((1H-pyrazol-1-yl)methyl)pyridin-2-yl)methoxy)pyridazin-3-yl)amino)methyl)-5,7-dimethylisoquinolin-1-amine] | < 1 nM
5 | Cc1cc2c(N)nccc2c(C)c1CNC(=O)c1cnn(Cc2ccc(CC(=O)N(C)C)cc2)c1 [Example 63, N-((1-amino-5,7-dimethylisoquinolin-6-yl)methyl)-1-(4-(2-(dimethylamino)-2-oxoethyl)benzyl)-1H-pyrazole-4-carboxamide] | < 1 nM
6 | Cc1cnc2ccc(Cn3cc(C(=O)NCc4c(C)cc5c(N)nccc5c4C)cn3)cc2n1 [Example 24, N-((1-amino-5,7-dimethylisoquinolin-6-yl)methyl)-1-((3-methylquinoxalin-6-yl)methyl)-1H-pyrazole-4-carboxamide] | < 1 nM
7 | Cc1cc2c(N)nccc2c(C)c1CNC(=O)c1cnn(C(C)c2ccc3ncc(Cl)cc3c2)c1 (stereo not shown) [Example 120, N-((1-amino-5,7-dimethylisoquinolin-6-yl)methyl)-1-(1-(3-chloroquinolin-6-yl)ethyl)-1H-pyrazole-4-carboxamide] | < 1 nM
8 | Cc1cc2c(N)nccc2c(C)c1CNC(=O)c1ccnc(C(=O)c2cn3cc(C4CC4)ccc3n2)c1 [Example 189, N-((1-amino-5,7-dimethylisoquinolin-6-y1)methyl)-2-(6-cyclopropylimidazo[1,2-a]pyridine-2-carbonyl)isonicotinamide] | 100 to 1000 nM
9 | Cc1cc2c(N)nccc2c(C)c1CNc1nccc(OCc2cn3cc(C4CC4)ccc3n2)n1 [Example 492, 6-(((4-((6-cyclopropylimidazo[1,2-a]pyridin-2-yl)methoxy)pyrimidin-2-yl)amino)methyl)-5,7-dimethylisoquinolin-1-amine] | 1 to 10 nM
10 | Cc1cc2c(N)nccc2c(C)c1CNC(=O)c1cnn(C(F)(F)c2ccccc2)c1 [Example I-472, N-((1-amino-5,7-dimethylisoquinolin-6-yl)methyl)-1-(difluoro(phenyl)methyl)-1H-pyrazole-4-carboxamide] | 100 to 1000 nM
11 | Cc1ccc2cc(Cn3cc(C(=O)NCc4c(C)cc5c(N)nccc5c4C)cn3)ccc2n1 [Example 64, N-((1-amino-5,7-dimethylisoquinolin-6-yl)methyl)-1-((2-methylquinolin-6-yl)methyl)-1H-pyrazole-4-carboxamide] | < 1 nM
12 | Cc1cc2c(N)nccc2c(C)c1CNc1cc(NCc2ccc(Cn3cccn3)cc2)cnn1 [Example 447, N^5-(4-((1H-pyrazol-1-yl)methyl)benzyl)-N^3-((1-amino-5,7-dimethylisoquinolin-6-yl)methyl)pyridazine-3,5-diamine] | < 1 nM
13 | Cc1cc2c(N)nccc2c(C)c1CNC(=O)c1cnn(Cc2ccc(Cc3nnco3)cc2)c1 [Example 44, 1-(4-((1,3,4-oxadiazol-2-yl)methyl)benzyl)-N-((1-amino-5,7-dimethylisoquinolin-6-yl)methyl)-1H-pyrazole-4-carboxamide] | 1 to 10 nM
14 | Cc1ccc(Cn2cc(C(=O)NCc3c(C)cc4c(N)nccc4c3C)cn2)cc1Cl [Example 96, N-((1-amino-5,7-dimethylisoquinolin-6-yl)methyl)-1-(3-chloro-4-methylbenzyl)-1H-pyrazole-4-carboxamide] | 1 to 10 nM
15 | Cc1cc2c(N)nccc2c(C)c1CNc1cc(OCc2ccc(Cn3cccn3)cc2)c(C(F)(F)F)nn1 [Example 450, 6-(((5-((4-((1H-pyrazol-1-yl)methyl)benzyl)oxy)-6-(trifluoromethyl)pyridazin-3-yl)amino)methyl)-5,7-dimethylisoquinolin-1-amine] | 1 to 10 nM
16 | Cc1cc(Cn2cc(C(=O)NCc3c(C)cc4c(N)nccc4c3C)cn2)cc(C)c1CC(=O)N(C)C [Example 20, N-((1-amino-5,7-dimethylisoquinolin-6-yl)methyl)-1-(4-(2-(dimethylamino)-2-oxoethyl)-3,5-dimethylbenzyl)-1H-pyrazole-4-carboxamide] | < 1 nM

Row | SMILES | EC50
17 | Cc1cc2c(N)nccc2c(C)c1CNc1cc(C(F)c2cn3cc(C4CC4)ccc3n2)ncn1 (stereo not shown) [Example 405, 6-(((6-((6-cyclopropylimidazo[1,2-a]pyridin-2-yl)fluoromethyl)pyrimidin-4-yl)amino)methyl)-5,7-dimethylisoquinolin-1-amine] | < 1 nM
18 | Cc1cc2c(N)nccc2c(C)c1CNC(=O)c1cn(Cc2ccc(CC(=O)N3CC4CC4C3)cc2)nc1F (stereo not shown) [Example I-477, 1-(4-(2-(3-azabicyclo[3.1.0]hexan-3-yl)-2-oxoethyl)benzyl)-N-((1-amino-5,7-dimethylisoquinolin-6-yl)methyl)-3-fluoro-1H-pyrazole-4-carboxamide] | < 1 nM
19 | Cc1cc2c(N)nccc2c(C)c1CNc1cc2c(Cc3ccc4ccccc4c3)cn(C)c2cn1 [Example 524, 5,7-dimethyl-6-(((1-methyl-3-(naphthalen-2-ylmethyl)-1H-pyrrolo[2,3-c]pyridin-5-yl)amino)methyl)isoquinolin-1-amine] | > 1000 nM
20 | Cc1cc2c(N)nccc2c(C)c1CNc1cc(NCc2cn3cc(C#N)ccc3n2)ncn1 [Example 332, 2-(((6-(((1-amino-5,7-dimethylisoquinolin-6-yl)methyl)amino)pyrimidin-4-yl)amino)methyl)imidazo[1,2-a]pyridine-6-carbonitrile] | 1 to 10 nM
21 | Cc1cc2c(N)nccc2c(C)c1CNC(=O)c1cnn(Cc2cn3c(Br)cccc3n2)c1 [Example 139, N-((1-amino-5,7-dimethylisoquinolin-6-yl)methyl)-1-((5-bromoimidazo[1,2-a]pyridin-2-yl)methyl)-1H-pyrazole-4-carboxamide] | < 1 nM
22 | Cc1cc2c(N)nccc2c(C)c1CNc1cc(NCc2ccc(Cc3cnccn3)cc2)ncn1 [Example 338, N^4-((1-amino-5,7-dimethylisoquinolin-6-yl)methyl)-N^6-(4-(pyrazin-2-ylmethyl)benzyl)pyrimidine-4,6-diamine] | 1 to 10 nM
23 | Cc1cc2c(N)nccc2c(C)c1CNc1cc(NCc2ccc(OCC(=O)N3CC4CC4C3)cc2)ncn1 (stereo not shown) [Example 344, 2-(4-(((6-(((1-amino-5,7-dimethylisoquinolin-6-yl)methyl)amino)pyrimidin-4-yl)amino)methyl)phenoxy)-1-(3-azabicyclo[3.1.0]hexan-3-yl)ethan-1-one, formic acid salt] | < 1 nM
24 | Cc1cc2c(N)nccc2c(C)c1CNC(c1cnn(Cc2ccc(Cn3ccccc3=O)cc2)c1)C(F)(F)F (stereo not shown) [Example I-471, 1-(4-((4-(1-(((1-amino-5,7-dimethylisoquinolin-6-yl)methyl)amino)-2,2,2-trifluoroethyl)-1H-pyrazol-1-yl)methyl)benzyl)pyridin-2(1H)-one] | 10 to 100 nM
25 | Cc1cc2c(N)nccc2c(C)c1CNC(=O)c1cnn(Cc2ccc(CC(=O)N3CC4C(C3)C4(F)F)cc2)c1 (stereo not shown) [Example 214, N-((1-amino-5,7-dimethylisoquinolin-6-yl)methyl)-1-(4-(2-(6,6-difluoro-3-azabicyclo[3.1.0]hexan-3-yl)-2-oxoethyl)benzyl)-1H-pyrazole-4-carboxamide] | < 1 nM
26 | Cc1cc2c(N)nccc2c(C)c1CNc1cc(OCc2ccc(-n3ccccc3=O)cc2)cnn1 [Example 438, 1-(4-(((6-(((1-amino-5,7-dimethylisoquinolin-6-yl)methyl)amino)pyridazin-4-yl)oxy)methyl)phenyl)pyridin-2(1H)-one] | 1 to 10 nM
27 | Cc1cc2c(N)nccc2c(C)c1CNC(=O)c1cnn(Cc2cn3c(F)c(C4CC4)ccc3n2)c1 [Example 142, N-((1-amino-5,7-dimethylisoquinolin-6-yl)methyl)-1-((6-cyclopropyl-5-fluoroimidazo[1,2-a]pyridin-2-yl)methyl)-1H-pyrazole-4-carboxamide] | < 1 nM
28 | CC(C)=Cc1ccc2nc(Cn3cc(C(=O)NCc4c(C)cc5c(N)nccc5c4C)cn3)cn2c1 [Example 179, N-((1-amino-5,7-dimethylisoquinolin-6-yl)methyl)-1-((6-(2-methylprop-1-en-1-yl)imidazo[1,2-a]pyridin-2-y1)methyl)-1H-pyrazole-4-carboxamide] | 1 to 10 nM
29 | Cc1cc2c(N)nccc2c(C)c1CNc1cnnc(OCc2ccc(CC(=O)N(C)C)cc2)c1 [Example I-462, 2-(4-(((5-(((1-amino-5,7-dimethylisoquinolin-6-yl)methyl)amino)pyridazin-3-yl)oxy)methyl)phenyl)-N,N-dimethylacetamide] | > 1000 nM
30 | Cc1cc2c(N)nccc2c(C)c1CNc1cc(OCc2cccc(-n3ccccc3=O)c2)cnn1 [Example 435, 1-(3-(((6-(((1-amino-5,7-dimethylisoquinolin-6-yl)methyl)amino)pyridazin-4-yl)oxy)methyl)phenyl)pyridin-2(1H)-one] | 1 to 10 nM
31 | Cc1cc2c(N)nccc2c(C)c1CNc1cc(NCc2ccc(OC3(C(=O)N(C)C)CC3)cc2)ncn1 [Example 357, 1-(4-( ((6-(((1-amino-5,7-dimethylisoquinolin-6-yl)methyl)amino)pyrimidin-4-yl)amino)methyl)phenoxy)-N,N-dimethylcyclopropane-1-carboxamide, formic acid salt] | 10 to 100 nM
